Test results taken from BindingDB's records for doi:10.1021/bi0488799 (Glaxosmithkline, 2004).

How the values were obtained:
Settings in all cases: pH 5.5; 30 °C
[1] = biological target: T1, Dimer of Gag-Pol polyprotein [489-587,L499I,L508Q,K509R,E524D,M525I,S526N,M535I,I539V,I543V,I551V,L552P,A560V,V571A,L579M] (Human immunodeficiency virus 1, UniProt P04585, A560V/E524D/I539V/I543V/I551V/K509R/L499I/L508Q/L552P/L579M/M525I/M535I/S526N/V571A); assay: Fluorometric Activity Assay
T1 construct: 489-587
Procedure: (§1) Enzymatic activity was determined with fluorogenic substrate in the presence and absence of inhibitor. The fluorescence increase due to hydrolysis of the substrate was monitored with an excitation filter of wavelength 340 nm and an emission filter of wavelength 420. Values for the inhibition constants (Ki) were determined by conventional steady-state kinetic techniques.

[2] = biological target: T2, Dimer of Gag-Pol polyprotein [489-587,I539V] (Human immunodeficiency virus 1, UniProt P04585, I539V); assay: Kinetic Competitive Displacement Assay
T2 construct: 489-587
Procedure: The method was a competitive displacement assay used to determine binding affinities of other inhibitors relative to that of GW0385. The inhibitor of unknown affinity was used to displace [3H]GW0385 from enzyme-bound [3H]GW0385 (E[3H]GW0385). From the concentration of E[3H]GW0385 at equilibrium, the concentrations of enzyme-bound and free inhibitors were calculated, and the ratio of the Ki value of the unknown to that of GW0385 was determined (Ki,unknown/Ki,GW0385).

[3] = biological target: T3, Dimer of Gag-Pol polyprotein [489-587,M535I,L552P,A560V,V571F,I573V] (Human immunodeficiency virus 1, UniProt P04585, A560V/I573V/L552P/M535I/V571F); assay: Fluorometric Activity Assay
T3 construct: 489-587
Procedure: as §1

[4] = biological target: T4, Dimer of Gag-Pol polyprotein [489-587] (Human immunodeficiency virus 1, UniProt P12497); assay: Fluorometric Activity Assay
T4 construct: 489-587
Procedure: as §1

[5] = biological target: T2, Dimer of Gag-Pol polyprotein [489-587,I539V]; assay: GW0385 Assay
Procedure: (§2) The assay method employed kinetic determinations of values for k1 and k-1, from which value of inhibition constant (Ki ) was determined (k-1/k1). The k1 is calculated from spectrofluorometric data in the presence of saquinavir. The k-1 is calculated from the time course for displacement of [3H]GW0385 from E[3H]GW0385 by nonlabeled GW0385.

[6] = biological target: T1, Dimer of Gag-Pol polyprotein [489-587,L499I,L508Q,K509R,E524D,M525I,S526N,M535I,I539V,I543V,I551V,L552P,A560V,V571A,L579M]; assay: GW0385 Assay
Procedure: as §2

Compound	Ki [1] [pM]	Ki [2] [pM]	Ki [3] [pM]	Ki [4] [pM]	Ki [5] [pM]	Ki [6] [pM]
CC(C)CN(C[C@@H](O)[C@H](Cc1ccc(OCc2ccccn2)cc1)NC(=O)O[C@H]1CO[C@H]2OCC[C@H]21)S(=O)(=O)c1ccc2c(c1)OCO2 [(3R,3aS,6aR)-hexahydrofuro[2,3-b]furan-3-yl N-[(2S,3R)-4-[2H-1,3-benzodioxole-5-(2-methylpropyl)sulfonamido]-3-hydroxy-1-[4-(pyridin-2-ylmethoxy)phenyl]butan-2-yl]carbamate]	1.7	2.6	–	–	–	–
CC(C)CN(C[C@@H](O)[C@H](Cc1ccc(OCCc2cccs2)cc1)NC(=O)O[C@H]1CO[C@H]2OCC[C@H]21)S(=O)(=O)c1ccc2c(c1)OCO2 [(3R,3aS,6aR)-hexahydrofuro[2,3-b]furan-3-yl N-[(2S,3R)-4-[2H-1,3-benzodioxole-5-(2-methylpropyl)sulfonamido]-3-hydroxy-1-{4-[2-(thiophen-2-yl)ethoxy]phenyl}butan-2-yl]carbamate]	2.4	3.9	–	–	–	–
CNC(=O)OCCCC(C)(C)CN(C[C@@H](O)[C@H](Cc1ccccc1)NC(=O)O[C@H]1CO[C@H]2OCC[C@H]21)S(=O)(=O)c1ccc2c(c1)OCO2 [(3R,3aS,6aR)-hexahydrofuro[2,3-b]furan-3-yl N-[(2S,3R)-4-[2H-1,3-benzodioxole-5-({2,2-dimethyl-5-[(methylcarbamoyl)oxy]pentyl})sulfonamido]-3-hydroxy-1-phenylbutan-2-yl]carbamate]	54.4	27	25	–	–	–
CCOC(=O)NCCCCC(C)(C)CN(C[C@@H](O)[C@H](Cc1ccccc1)NC(=O)O[C@H]1CO[C@H]2OCC[C@H]21)S(=O)(=O)c1ccc2c(c1)OCO2 [(3R,3aS,6aR)-hexahydrofuro[2,3-b]furan-3-yl N-[(2S,3R)-4-[2H-1,3-benzodioxole-5-({6-[(ethoxycarbonyl)amino]-2,2-dimethylhexyl})sulfonamido]-3-hydroxy-1-phenylbutan-2-yl]carbamate]	1.2	4.6	4.3	–	–	–
CC(C)CN(C[C@@H](O)[C@H](Cc1ccccc1)NC(=O)O[C@H]1CCOC1)S(=O)(=O)c1ccc(N)cc1 [VX-478]	–	–	–	57	–	–
Cc1nc(COc2ccc(C[C@H](NC(=O)O[C@H]3CO[C@H]4OCC[C@H]43)[C@H](O)CN(CC(C)C)S(=O)(=O)c3ccc4c(c3)OCO4)cc2)cs1 [[3H]GW0385]	–	–	–	–	2	3.4
